According to ChEMBL document CHEMBL2417420, “Autotaxin inhibition: development and application of computational tools to identify site-selective lead compounds” (Bioorg Med Chem, 2013):
Active and inactive are the calls of the source. The rule behind the calls is not given here.

Columns and labels:
A2058 [1] = assay: Reduction of autotaxin-induced cell migration in human A2058 cells at 30 uM after 4 to 48 hrs by monolayer scratch assay; assay type: functional; set-up: scale not given: the % may be the effect or the level left
A2058 [2] = assay: Reduction of lysophosphatidyl choline-induced cell migration in human A2058 cells at 30 uM after 4 to 48 hrs by monolayer scratch assay; assay type: functional; set-up: scale not given: the % may be the effect or the level left
A2058 [3] = assay: Reduction of cell migration in human A2058 cells at 30 uM after 4 to 48 hrs by monolayer scratch assay; assay type: functional; set-up: scale not given: the % may be the effect or the level left
Autotaxin [4] = molecular target: T1, Autotaxin (Homo sapiens, UniProt Q13822); assay: Inhibition of C-terminal FLAG-tagged human recombinant autotaxin using synthetic substrate FS-3 at 10 uM measured every 2 mins by FRET assay relative to control
A2058 [5] = assay: Reduction of autotaxin and lysophosphatidyl choline-induced cell migration in human A2058 cells at 30 uM after 4 to 48 hrs by monolayer scratch assay; assay type: functional; set-up: scale not given: the % may be the effect or the level left
Autotaxin [6] = molecular target: T1, Autotaxin; assay: Inhibition of C-terminal FLAG-tagged human recombinant autotaxin using synthetic substrate FS-3 measured every 2 mins by FRET assay
A2058 [7] = assay: Cytotoxicity against human A2058 cells assessed as reduction of cell number at 30 uM after 24 hrs by MTS assay; assay type: functional
Autotaxin [8] = molecular target: T1, Autotaxin; assay: Inhibition of C-terminal FLAG-tagged human recombinant autotaxin using paranitrophenyl thymidine monophosphate as substrate at 10 uM measured every 2 mins by […] assay relative to control
Autotaxin [9] = molecular target: T1, Autotaxin; assay: Competitive inhibition of C-terminal FLAG-tagged human recombinant autotaxin using synthetic substrate FS-3 by Michaelis-Menten equation analysis
A2058 [10] = assay: Cytotoxicity against human A2058 cells assessed as reduction lysophosphatidyl choline-induced of cell proliferation at 30 uM after 24 hrs by MTS assay; assay type: functional; set-up: scale not given: the % may be the effect or the level left
A2058 [11] = assay: Cytotoxicity against human A2058 cells assessed as reduction lysophosphatidic acid-induced of cell proliferation at 30 uM after 24 hrs by MTS assay; assay type: functional; set-up: scale not given: the % may be the effect or the level left
A2058 [12] = assay: Cytotoxicity against human A2058 cells assessed as reduction lysophosphatidyl choline and autotaxin-induced of cell proliferation at 30 uM after 24 hrs by MTS assay; assay type: functional; set-up: scale not given: the % may be the effect or the level left
A2058 [13] = assay: Cytotoxicity against human A2058 cells assessed as reduction autotaxin-induced of cell proliferation at 30 uM after 24 hrs by MTS assay; assay type: functional; set-up: scale not given: the % may be the effect or the level left
A2058 [14] = assay: Reduction of lysophosphatidic acid-induced cell migration in human A2058 cells at 30 uM after 4 to 48 hrs by monolayer scratch assay; assay type: functional; set-up: scale not given: the % may be the effect or the level left
Autotaxin [15] = molecular target: T1, Autotaxin; assay: Activation of C-terminal FLAG-tagged human recombinant autotaxin using paranitrophenyl thymidine monophosphate as substrate measured every 2 mins by […] assay

Row | SMILES | inhibition (Autotaxin [4]) [%] | IC50 (Autotaxin [6]) [nM] | inhibition (Autotaxin [8]) [%] | Ki (Autotaxin [9]) [nM] | EC50 (Autotaxin [15]) [nM] | Activity (A2058 [1]) [%] | Activity (A2058 [2]) [%] | Activity (A2058 [3]) [%] | Activity (A2058 [5]) [%] | Activity (A2058 [7]) | Activity (A2058 [10]) [%] | Activity (A2058 [11]) [%] | Activity (A2058 [12]) [%] | Activity (A2058 [13]) [%] | Activity (A2058 [14]) [%]
1 | CC(C)c1ccc(OCC(=O)N2CCN(c3ccc(C(=O)N4CCCC4C(N)=O)cn3)CC2C)cc1 (stereo unspecified) | 88.5 | 1200 | 29.3 | 1600 |  | 19 | 35 | 43 | 16 | inactive |  |  |  |  | 
2 | COc1cc(C2CC(=O)NC(SCC(=O)Nc3ccc(Br)cc3)=C2C#N)ccc1O (stereo unspecified) | 68.6 | 3800 |  | 9800 |  | 61 | 59 | 60 | 60 |  |  | 28 |  |  | 57

Stronger by IC50 (Autotaxin [6]), values ahead:

Row | inhibition (Autotaxin [4]) [%] | IC50 (Autotaxin [6]) [nM] | inhibition (Autotaxin [8]) [%] | Ki (Autotaxin [9]) [nM] | EC50 (Autotaxin [15]) [nM] | SMILES | Activity (A2058 [1]) [%] | Activity (A2058 [2]) [%] | Activity (A2058 [3]) [%] | Activity (A2058 [5]) [%] | Activity (A2058 [7]) | Activity (A2058 [10]) [%] | Activity (A2058 [11]) [%] | Activity (A2058 [12]) [%] | Activity (A2058 [13]) [%] | Activity (A2058 [14]) [%]
3 | 64.7 | 1000 | 10.6 | 1600 |  | CC1CN(c2ccc(C(=O)N3CCCC3C(N)=O)cn2)CCC1C(=O)COc1cccc2ccccc12 (stereo unspecified) | 34 | 24 | 39 | 25 | 49% | 36 | 44 | 27 | 36 | 30
4 | 87.4 | 900 |  | 500 |  | CC(O)C(NC(=O)c1ccc(N2CCC(CCCC3CCN(C(=O)CCC(=O)c4ccccc4)CC3)CC2)nc1)C(N)=O (stereo unspecified) | 33 | 28 |  | 38 |  |  | 27 |  | 30 | 22
5 | 90.5 | 800 |  | 100 | 2790 | CC1CCC(C(C)C)C(OCC(=O)N2CCC(CCCC3CCN(c4ccc(C(=O)N5CCCC5C(N)=O)cc4)CC3)CC2)C1 (stereo unspecified) |  |  |  |  | Active |  |  |  |  | 
